Measured values taken from US12225904B2, “Phenylpyrazole compound and method for controlling plant disease” (SUMITOMO CHEMICAL COMPANY, LIMITED, priority 2019, dated 2025).

System: soybean powdery mildew (Microsphaera diffusa)
Assay: Test Example 13: control test against soybean powdery mildew, foliar spray after inoculation
Type: in vivo
Conditions: 200 ppm foliar spray 2 days after inoculation; soybean cv Kurosengoku

CCS(=O)(=O)n1ccc(-c2ccc(Cl)c([N+](=O)[O-])c2)n1 [compound 36]
lesion area compared to the lesion area in an untreated soybean: ≤ 30%
